Source: patent publication US20260258003A1, “SLACK-ACTIVATING COMPOUNDS AND THEIR MEDICAL USE” (Johann Wolfgang Goethe-Universität Frankfurt am Main, priority 2023, published 2026)
Where two headings read alike, the source gives them in different places.

Columns and labels:
[1] = In vivo pharmacokinetic study, plasma and brain levels by LC-MS; parameters: species or system mice; details: male, C57BL/6, mouse, in vivo, ip
Procedure: The compounds pharmacokinetic properties were examined in vivo by administering the compounds intraperitoneally (i.p.) at 1 mg/kg in mice, and determining plasma and brain levels over 8 h by LC-MS measurements.
The pharmacokinetic study was performed by Pharmacelsus (Saarbrücken, Germany). In total 27 male C57BL/6 mice (8 weeks old, 23-31 g body weight, purchased from Janvier Labs, France) were used. The animals were housed in a temperature-controlled room (20-24° C.) and maintained in a 12 h light/dark cycle. Food and water were available ad libitum. All experimental procedures were approved by and conducted in accordance with the regulations of the local Animal Welfare authorities (Landesamt für Gesundheit und Verbraucherschutz, Abteilung Lebensmittel-und Veterinärwesen, Saarbrücken).
The animals were divided into 3 groups (9 mice/group) and a cassette dosing was performed, in which the mice received a single dose of 1 mg/kg body weight of 3-4 compounds (dissolved in 0.9% NaCl containing 20% cyclodextrine) i.p. simultaneously. From each animal 2 blood samples were collected from the retrobulbar venous plexus under short isoflurane anesthesia (at 0.25 h and 0.5 h from 3 mice; at 1 h and 2 h from 3 mice; and at 4 h and 8 h from 3 mice). Li-heparin was used as anticoagulant. Plasma samples were obtained by centrifugation for 10 min at 3000× g and 4° C. Immediately after the last blood sample the animal was sacrificed by cervical dislocation and the brain was removed and frozen in liquid nitrogen. Plasma and brain samples were stored at −80° C. until LC-MS analysis.
For all other compounds, the HPLC system consisted of a U-HPLC pump (Accela) and an AS Open auto sampler (Thermo Fisher Scientific, USA), and mass spectrometry was performed on a Q Exactive (Orbitrap) accurate mass spectrometer equipped with a heated electrospray (H-ESI) interface (Thermo Fisher Scientific, USA) connected to a PC running the standard software Chromeleon 7.2. For all compounds, the HPLC pump flow rate was set to 600 μl/min and the compounds were separated on an analytical column with a suitable pre-column. The pharmacokinetic analysis was performed applying a non-compartment model using the Kinetica 5.0 software (Thermo Scientific, Waltham, USA). All given parameters were obtained by trapezoid area calculation.

[2] = tested on: 44 targets; experiment: SafetyScreen44 panel (Eurofins), whole panel; assay type: binding, mostly human; details: 10 μM, out of 44 targets
Procedure: (§1) Compound enzyme inhibition effect was calculated as a % inhibition of control enzyme activity. […] Measurements were performed in duplicate.

[3] = molecular target: T1, dopamine receptor D1 (D1) (Homo sapiens, UniProt P21728); experiment: SafetyScreen44 binding; details: 10 μM; substantial = higher than 50%
T1 construct: Eurofins SafetyScreen44
Procedure: as §1

[4] = molecular target: T2, histamine H1 receptor (H1) (Homo sapiens, UniProt P35367); experiment: SafetyScreen44 binding; details: 10 μM; substantial = higher than 50%
T2 construct: Eurofins SafetyScreen44
Procedure: as §1

[5] = molecular target: T3, human ether-à-go-go (hERG) potassium channel (Homo sapiens, UniProt Q12809); experiment: SafetyScreen44 binding; details: 10 μM
T3 construct: Eurofins SafetyScreen44
Procedure: as §1

[6] = molecular target: T4, serotonin 5-HT2A receptor (Homo sapiens, UniProt P28223); experiment: SafetyScreen44 binding; details: 10 μM; substantial = higher than 50%
T4 construct: Eurofins SafetyScreen44
Procedure: as §1

[7] = molecular target: T5, serotonin 5-HT2B receptor (Homo sapiens, UniProt P41595); experiment: SafetyScreen44 binding; details: 10 μM; substantial = higher than 50%
T5 construct: Eurofins SafetyScreen44
Procedure: as §1

[8] = tested on: voltage-gated (KV) potassium channel; experiment: SafetyScreen44 binding; parameters: species or system rat; details: 10 μM
Procedure: as §1

[9] = tested on: motor function of mice; experiment: Accelerating rotarod test (motor function); assay type: in vivo; parameters: motor function in the accelerating rotarod test: dose or concentration left out as unconfirmed; details: 15 min after administration
Procedure: (§2) Further studies were conducted to assess the in vivo efficacy of Compound 6 and Compound 10 in mice. In detail, experiments were performed in 8 to 16 weeks old C57BL/6N mice (Charles River, Sulzfeld, Germany) and animals with a genetic deletion of Slack (Slack^−/− mice^27) of either sex. Animals were housed on a 12 h light/dark cycle with access to food and water ad libitum. All experiments adhered to the guidelines of the International Association for the Study of Pain and to the ARRIVE (Animal Research: Reporting on In Vivo Experiments) guidelines, and were approved by and conducted in accordance with the regulations of the local Animal Welfare authorities (Regierungspräsidium Darmstadt, Germany). All behavioral studies were conducted during the light cycle of the day at room temperature (20-24° C.) by an observer blinded for the treatment of the animals and/or their genotype.
(§3) Accelerating rotarod and vertical pole test were performed as follows: Mice were placed on a rotarod treadmill (Ugo Basile, Italy) with increasing speed (4-40 rpm over 300 s), and were trained for 4-5 consecutive days. Only mice reaching the 300 seconds without falling off were included in the experiment. On the testing day, compounds were i.p. administered in a vehicle composed of 0.9% saline (Sigma-Aldrich) containing 10% 2-hydroxypropyl-β-cyclodextrine (ITW Reagents) and after 15 min the latency to fall off the accelerating rotarod was measured. Immediately thereafter, mice were placed head-upward on the top of a vertical pole with a rough surface (diameter 1 cm, height 40 cm) and the time until animals reached the ground was recorded (cut-off time 20 s). Means out of three trials for each time point were calculated for further analysis.

[10] = tested on: motor function of mice; experiment: Vertical pole test (motor function); assay type: in vivo; details: 3-30 mg i.p., after rotarod test
Procedure: as §2, §3

[11] = tested on: chloroquine-induced scratching behavior of mice; experiment: Chloroquine-induced acute itch (scratching) model, systemic treatment; assay type: in vivo; details: for chloroquine-induced scratching behavior: WT mice, 3, 10 or 30 mg/kg i.p. 15 min prior to s.c. chloroquine
Procedure: as §2
Acute itch behavior of the mice was monitored using a histamine-based, chloroquine-based and SLIGRL-based acute itch behavior model. In these models, three to four days before the experiment day, the fur on the dorsolateral aspect of the neck was shaved under brief isoflurane anesthesia. On the testing day, mice were habituated for 30 min in separate plexiglass cylinders (30 cm diameter). Compounds were dissolved in 0.9% saline containing 10% 2-hydroxypropyl-β-cyclodextrine and i.p. administered in a volume of maximal 200 μL. 15 min thereafter, the pruritogens chloroquine (200 μg), SLIGRL (100 μg) or histamine (800 μg), all dissolved in 0.9% saline (20 μL), were injected subcutaneously into the nape of the neck. Numbers of scratching bouts directed to the nape of the neck were assessed over 30 min by videotaping.

[12] = molecular target: T6, alpha-1A adrenergic receptor (α1A) (Homo sapiens, UniProt P35348); experiment: SafetyScreen44 binding; details: 10 μM; substantial = higher than 50%
T6 construct: Eurofins SafetyScreen44
Procedure: as §1

[13] = molecular target: T7, serotonin transporter (SET) (Homo sapiens, UniProt P31645); experiment: SafetyScreen44 binding; details: 10 μM; substantial = higher than 50%
T7 construct: Eurofins SafetyScreen44
T7 sequence (P31645 whole entry): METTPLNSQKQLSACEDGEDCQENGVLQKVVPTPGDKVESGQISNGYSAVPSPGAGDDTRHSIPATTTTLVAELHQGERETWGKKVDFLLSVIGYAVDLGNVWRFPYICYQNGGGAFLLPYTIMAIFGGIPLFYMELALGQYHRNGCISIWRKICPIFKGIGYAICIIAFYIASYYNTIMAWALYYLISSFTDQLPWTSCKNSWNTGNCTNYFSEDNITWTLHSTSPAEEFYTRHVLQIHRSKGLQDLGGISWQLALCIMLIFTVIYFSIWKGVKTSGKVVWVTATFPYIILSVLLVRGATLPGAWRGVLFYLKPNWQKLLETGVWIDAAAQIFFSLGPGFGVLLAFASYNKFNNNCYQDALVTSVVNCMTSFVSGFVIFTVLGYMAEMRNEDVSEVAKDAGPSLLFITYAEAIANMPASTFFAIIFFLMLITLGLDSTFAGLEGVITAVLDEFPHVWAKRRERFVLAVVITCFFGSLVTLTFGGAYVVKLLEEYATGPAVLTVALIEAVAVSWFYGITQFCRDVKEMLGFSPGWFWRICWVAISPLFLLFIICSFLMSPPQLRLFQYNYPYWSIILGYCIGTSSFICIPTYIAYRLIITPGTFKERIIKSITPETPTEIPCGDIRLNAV

T3 sequence (Q12809 whole entry): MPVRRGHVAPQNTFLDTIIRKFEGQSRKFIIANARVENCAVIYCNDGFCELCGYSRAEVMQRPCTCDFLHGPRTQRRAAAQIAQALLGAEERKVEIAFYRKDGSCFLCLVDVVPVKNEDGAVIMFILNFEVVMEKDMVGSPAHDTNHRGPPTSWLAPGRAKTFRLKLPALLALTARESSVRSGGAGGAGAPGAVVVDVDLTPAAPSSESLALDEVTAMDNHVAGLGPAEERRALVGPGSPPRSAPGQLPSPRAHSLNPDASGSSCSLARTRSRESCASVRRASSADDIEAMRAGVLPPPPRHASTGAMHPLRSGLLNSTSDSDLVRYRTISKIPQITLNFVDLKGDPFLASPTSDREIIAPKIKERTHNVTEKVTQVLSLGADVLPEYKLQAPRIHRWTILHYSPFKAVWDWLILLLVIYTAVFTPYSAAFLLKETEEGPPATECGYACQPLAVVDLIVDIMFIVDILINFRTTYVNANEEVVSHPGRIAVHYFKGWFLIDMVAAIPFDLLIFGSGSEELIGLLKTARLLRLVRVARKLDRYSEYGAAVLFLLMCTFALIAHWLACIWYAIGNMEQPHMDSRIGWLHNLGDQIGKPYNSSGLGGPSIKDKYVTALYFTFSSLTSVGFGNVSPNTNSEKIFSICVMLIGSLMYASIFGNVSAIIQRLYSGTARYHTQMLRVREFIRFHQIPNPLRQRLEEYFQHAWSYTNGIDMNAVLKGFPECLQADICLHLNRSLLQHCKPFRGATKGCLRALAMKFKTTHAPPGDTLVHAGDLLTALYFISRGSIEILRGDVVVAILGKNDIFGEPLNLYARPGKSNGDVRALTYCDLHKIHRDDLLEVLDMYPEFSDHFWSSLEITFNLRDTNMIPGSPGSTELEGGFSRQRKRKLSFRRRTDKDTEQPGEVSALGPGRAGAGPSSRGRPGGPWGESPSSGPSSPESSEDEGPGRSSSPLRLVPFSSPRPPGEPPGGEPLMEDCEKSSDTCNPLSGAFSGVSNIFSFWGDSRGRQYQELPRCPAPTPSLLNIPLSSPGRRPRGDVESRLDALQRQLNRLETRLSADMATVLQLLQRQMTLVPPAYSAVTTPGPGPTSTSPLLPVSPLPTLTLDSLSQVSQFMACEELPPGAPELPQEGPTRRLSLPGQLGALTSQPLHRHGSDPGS
T1 sequence (P21728 whole entry): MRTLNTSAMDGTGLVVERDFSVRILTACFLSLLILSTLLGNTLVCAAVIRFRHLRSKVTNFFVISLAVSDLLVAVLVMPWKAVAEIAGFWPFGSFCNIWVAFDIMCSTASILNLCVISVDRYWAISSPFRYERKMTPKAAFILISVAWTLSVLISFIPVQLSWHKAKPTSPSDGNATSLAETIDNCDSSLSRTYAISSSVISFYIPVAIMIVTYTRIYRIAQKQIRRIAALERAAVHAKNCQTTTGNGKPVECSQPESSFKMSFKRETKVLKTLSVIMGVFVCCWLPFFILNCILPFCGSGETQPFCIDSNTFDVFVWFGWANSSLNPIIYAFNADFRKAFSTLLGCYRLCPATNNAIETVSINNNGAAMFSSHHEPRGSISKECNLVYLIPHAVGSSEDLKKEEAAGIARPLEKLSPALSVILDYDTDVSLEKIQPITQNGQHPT
T5 sequence (P41595 whole entry): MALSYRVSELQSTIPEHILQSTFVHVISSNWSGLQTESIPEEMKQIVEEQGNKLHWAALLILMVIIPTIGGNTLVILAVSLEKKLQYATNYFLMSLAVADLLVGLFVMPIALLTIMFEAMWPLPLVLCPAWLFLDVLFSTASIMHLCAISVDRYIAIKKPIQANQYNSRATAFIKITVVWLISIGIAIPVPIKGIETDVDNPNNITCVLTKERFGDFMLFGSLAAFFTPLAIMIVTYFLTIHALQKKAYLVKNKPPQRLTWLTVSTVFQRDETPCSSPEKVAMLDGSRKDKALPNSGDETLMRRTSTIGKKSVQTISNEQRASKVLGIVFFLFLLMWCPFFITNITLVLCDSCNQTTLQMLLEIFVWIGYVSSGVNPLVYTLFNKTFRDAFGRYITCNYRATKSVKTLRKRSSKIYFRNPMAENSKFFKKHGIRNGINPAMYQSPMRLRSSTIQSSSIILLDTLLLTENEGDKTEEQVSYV
T2 sequence (P35367 whole entry): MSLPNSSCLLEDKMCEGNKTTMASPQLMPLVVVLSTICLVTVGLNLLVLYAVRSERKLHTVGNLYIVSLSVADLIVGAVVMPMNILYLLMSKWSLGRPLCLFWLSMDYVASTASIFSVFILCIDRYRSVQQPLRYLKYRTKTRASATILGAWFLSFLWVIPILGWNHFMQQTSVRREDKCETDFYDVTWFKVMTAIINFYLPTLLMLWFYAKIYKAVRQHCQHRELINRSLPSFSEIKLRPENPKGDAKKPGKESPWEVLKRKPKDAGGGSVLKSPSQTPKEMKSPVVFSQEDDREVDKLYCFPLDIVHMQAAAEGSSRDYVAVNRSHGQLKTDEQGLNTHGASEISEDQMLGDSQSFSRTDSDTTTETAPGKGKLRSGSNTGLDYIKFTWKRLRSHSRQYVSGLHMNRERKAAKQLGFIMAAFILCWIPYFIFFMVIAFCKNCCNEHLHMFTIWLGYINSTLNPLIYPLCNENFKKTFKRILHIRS
T4 sequence (P28223 whole entry): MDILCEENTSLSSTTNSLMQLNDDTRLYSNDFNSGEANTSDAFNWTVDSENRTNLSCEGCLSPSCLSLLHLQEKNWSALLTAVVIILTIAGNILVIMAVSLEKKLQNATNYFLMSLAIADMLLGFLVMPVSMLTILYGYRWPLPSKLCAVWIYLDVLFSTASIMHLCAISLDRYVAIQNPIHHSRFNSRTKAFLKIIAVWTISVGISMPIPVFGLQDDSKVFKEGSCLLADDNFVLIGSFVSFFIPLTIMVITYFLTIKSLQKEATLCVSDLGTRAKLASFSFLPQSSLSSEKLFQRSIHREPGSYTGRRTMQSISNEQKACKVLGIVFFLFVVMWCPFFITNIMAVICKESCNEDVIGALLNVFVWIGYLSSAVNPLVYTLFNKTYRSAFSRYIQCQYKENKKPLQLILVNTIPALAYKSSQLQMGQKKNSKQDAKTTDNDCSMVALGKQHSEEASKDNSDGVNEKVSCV
T6 sequence (P35348 whole entry): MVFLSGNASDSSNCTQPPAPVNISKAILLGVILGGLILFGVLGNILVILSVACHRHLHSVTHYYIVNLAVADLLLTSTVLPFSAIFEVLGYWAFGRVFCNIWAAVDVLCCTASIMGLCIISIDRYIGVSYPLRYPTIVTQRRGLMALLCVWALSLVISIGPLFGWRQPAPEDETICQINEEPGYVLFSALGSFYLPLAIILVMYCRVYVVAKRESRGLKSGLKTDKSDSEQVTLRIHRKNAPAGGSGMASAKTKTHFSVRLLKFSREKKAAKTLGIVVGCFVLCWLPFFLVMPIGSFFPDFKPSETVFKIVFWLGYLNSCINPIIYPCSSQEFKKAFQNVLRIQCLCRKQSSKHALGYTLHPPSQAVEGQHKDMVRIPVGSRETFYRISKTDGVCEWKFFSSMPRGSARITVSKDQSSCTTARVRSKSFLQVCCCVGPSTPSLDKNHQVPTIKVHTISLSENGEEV

Row | Structure (SMILES) | number of targets with substantial binding inhibition (higher than 50%) [2] | binding inhibition, D1 [3] | binding inhibition, H1 [4] | binding to hERG potassium channel in the off-target screen [5] | binding inhibition, 5-HT2A [6] | binding inhibition, 5-HT2B [7] | binding to voltage-gated (KV) potassium channel in the off-target screen [8] | motor function in the accelerating rotarod test [9] | motor function in the vertical pole test [10] | chloroquine-induced scratching behavior [11] | further results
1 | O=c1nc(CN2CCN(C3=Nc4ccccc4Oc4ccc(Cl)cc43)CC2)[nH][nH]1 [Compound 10, 5-((4-(2-Chlorodibenzo[b,f][1,4]oxazepin-11-yl)piperazin-1-yl)methyl)-1,2-dihydro-3H-1,2,4-triazol-3-one] | 5 | substantial binding inhibition | substantial binding inhibition | did not measurably bind | substantial binding inhibition | substantial binding inhibition | did not measurably bind | did neither impair the motor function | did neither impair the motor function | ameliorate the scratching behavior in a dose-dependent manner | Kp ([1]; 1 mg/kg): ≤ 0.3
2 | O=C(O)COCCN1CCN(C2=Nc3ccccc3Oc3ccc(Cl)cc32)CC1 [Compound 6, 2-(2-(4-(2-Chlorodibenzo[b,f][1,4]oxazepin-11-yl)piperazin-1-yl)ethoxy) acetic acid] | 8 | substantial binding | substantial binding | did not measurably bind | substantial binding | substantial binding | did not measurably bind | did neither impair the motor function | did neither impair the motor function | ameliorate the scratching behavior in a dose-dependent manner | % AUCextra ([1]; 1 mg/kg): 10.1%; AUC(0-inf) ([1]; 1 mg/kg): 467 ng·h/mL; AUC(0-t) ([1]; 1 mg/kg): 420 ng·h/mL; CL/F ([1]; 1 mg/kg): 35.7 mL/min/kg; Cmax ([1]; 1 mg/kg): 240 ng/mL; Cz ([1]; 1 mg/kg): 13.3 ng/mL; Tmax ([1]; 1 mg/kg): 0.25 h; Vd/F ([1]; 1 mg/kg): 7.56 L/kg; half-life ([1]; 1 mg/kg): 2.4 h; tz ([1]; 1 mg/kg): 8 h; Kp ([1]; mice, 1 mg/kg i.p., read-out: brain/plasma ratio): ≤ 0.3; binding inhibition, α1A [12]: substantial binding; binding inhibition, SET [13]: substantial binding; chloroquine-induced scratching in Slack−/− mice ([11]; Slack−/− mice, 10 mg/kg): did not significantly alter; antipruritic effect after pretreatment with Slack inhibitor Compound 31 ([11]; WT mice, Compound 31 30 mg/kg i.p. 5 min prior to Compound 6 30 mg/kg i.p.): partly antagonized
